# Source: patent publication US8476197B2, “Aminopropenoates as fungicides” (priority 2009, dated 2013)
# Marks after values point to notes of the source that are not given here.
# Conditions: pH 2.3
row,Structure (SMILES),Log P
1,CCOC(=O)C(C#N)=C(Nc1ccccc1SC)c1cccnc1OC [Compound 522],3.32^[c]; 3.32^[b]

# Same assay, conditions: pH 2.7
row,Structure (SMILES),Log P
1,COC(=O)C(C#N)=C(NC1CCC(C(C)(C)C)CC1)c1cccnc1Cl (centres unmarked) [Compound 1077],4.51^[a]
2,CCOC(=O)C(C#N)=C(NC(C)C(C)OC)c1cccnc1Cl (centres unmarked) [Compound 1527],2.8^[a]
3,CCOC(=O)C(C#N)=C(NC(c1ccc(N(C)C)cc1)C(F)(F)F)c1cn(C)nc1C(F)F (racemic) [Compound 556],3.78^[a]
4,CCCC(C)NC(=C(C#N)C(=O)OCC)c1ccnc(Cl)c1Cl (racemic) [Compound 1390],3.99^[a]
5,CCOC(=O)C(C#N)=C(NC1CC1)c1cn(C)nc1C(F)F [Compound 1124],2.35^[a]
6,CCOC(=O)C(C#N)=C(NC(C)C(=O)OC)c1sccc1Br (centres unmarked) [Compound 649],2.96^[a]
7,CCOC(=O)C(C#N)=C(NC(c1cc2ccccc2s1)C(F)(F)F)c1cn(C)nc1C(F)(F)F (racemic) [Compound 147],4.46^[a]
8,CCOC(=O)C(C#N)=C(NC(C)c1nccs1)c1cccnc1C(F)F (racemic) [Compound 266],2.39^[a]
9,COC(=O)C(C#N)=C(NC1CC(C(F)(F)F)CC(C(F)(F)F)C1)c1cccnc1Cl (centres unmarked) [Compound 1071],3.42^[a]
10,CCN(CC)CC(C)NC(=C(C#N)C(=O)OC)c1cccnc1Cl (centres unmarked) [Compound 622],0.86^[a]
11,CCOC(=O)C(C#N)=C(NC(C)C1CC1)c1cn(C)nc1OC (centres unmarked) [Compound 891],2.8^[a]
12,CCOC(=O)C(C#N)=C(NC1C2CCCCC21)c1cn(C)nc1C(F)F (centres unmarked) [Compound 1131],3.44^[a]
13,CCOC(=O)C(C#N)=C(NC(C)C(C)C)c1cn(C)nc1C(C)(F)F (racemic) [Compound 1002],3.39^[a]
14,CCOC(=O)C(C#N)=C(Nc1ccc(SC)cc1)c1sccc1Br [Compound 470],4.01^[a]
15,CCOC(=O)C(C#N)=C(Nc1cccc(Cl)c1)c1sc(C)nc1C(F)(F)F [Compound 513],3.89^[a]
16,CCOC(=O)C(C#N)=C(Nc1ccccc1SC)c1sccc1Br [Compound 366],3.96^[a]
17,CCOC(=O)C(C#N)=C(NC(C)COc1cccc(C(F)(F)F)c1)c1cccnc1Cl (centres unmarked) [Compound 1160],4.13^[a]
18,COC(=O)C(C#N)=C(NC(C)c1cccc(Cl)c1)c1cccnc1Cl (centres unmarked) [Compound 403],3.19^[a]
19,COC(=O)C(C#N)=C(NC(C)Cc1c[nH]c2ccccc12)c1cn(C)nc1C(F)F (racemic) [Compound 57],3^[a]
20,CCOC(=O)C(C#N)=C(Nc1ccccc1Sc1ccc(C)cc1)c1cc(C)oc1C [Compound 419],5.08^[a]
21,COC(=O)C(C#N)=C(NC(C)(C)CC(F)(F)F)c1cccnc1Cl [Compound 758],2.34^[a]
22,CCOC(=O)C(C#N)=C(NC1CCC1)c1ccnc(Cl)c1Cl [Compound 802],3.52^[a]
23,CCOC(=O)C(C#N)=C(NC(C(=O)OC)C(C)C)c1sccc1C(F)(F)F (racemic) [Compound 658],3.62^[a]
24,CCOC(=O)C(C#N)=C(NC(C(=O)OC)c1ccccc1)c1cn(C)nc1C(F)F (centres unmarked) [Compound 1140],2.94^[a]

row,Structure (SMILES),Log P
1,CCOC(=O)C(C#N)=C(NC(C)c1csc(Cl)n1)c1cccnc1Cl (centres unmarked) [Compound 322],3.3^[a]
2,CCOC(=O)C(C#N)=C(NC(C)C1CC1)c1cnccc1C(F)(F)F (racemic) [Compound 897],3.2^[a]
3,CC(C)C(C)NC(=C(C#N)C(=O)N1CCSC1)c1cccnc1Cl (centres unmarked) [Compound 1509],3.19^[a]
4,CCOC(=O)C(C#N)=C(NC(C)C(C)C)c1c(C(F)F)nn(C)c1Cl (centres unmarked) [Compound 954],3.63^[a]
5,CCOC(=O)C(C#N)=C(NCCCCO)c1cccnc1Cl [Compound 1184],1.75^[a]
6,CCOC(=O)C(C#N)=C(NCC1(C)COC1)c1cccnc1Cl [Compound 1429],2.11^[a]
7,CCOC(=O)C(C#N)=C(NC(C)Cc1c[nH]c2ccccc12)c1ccsc1Br (centres unmarked) [Compound 106],3.8^[a]
8,CCOC(=O)C(C#N)=C(NC(C)C(=O)NC)c1ccsc1Br (centres unmarked) [Compound 637],2.05^[a]
9,COC(=O)C(C#N)=C(NC(C)c1cccs1)c1sc(C)nc1C(F)(F)F (centres unmarked) [Compound 210],3.46^[a]
10,CCOC(=O)C(C#N)=C(NC(C)c1c(Cl)cccc1Cl)c1cn(C)nc1C(Cl)Cl (centres unmarked) [Compound 1574],3.94^[a]
11,CCOC(=O)C(C#N)=C(NC(C#N)c1ccccc1)c1cn(C)nc1C(F)F (centres unmarked) [Compound 1230],2.94^[a]
12,CCOC(=O)C(C#N)=C(NC(C)c1ccccn1)c1cn(C)nc1CC (centres unmarked) [Compound 1206],2.25^[a]
13,CCOC(=O)C(C#N)=C(NC1CCCCNC1=O)c1cc(C)oc1C (centres unmarked) [Compound 119],2.14^[a]
14,CCOC(=O)C(C#N)=C(NC(C)C(C)C)c1cn(C)cc1C(F)(F)F (racemic) [Compound 987],3.84^[a]
15,CCOC(=O)C(C#N)=C(NC(C)COc1ccc(C)cc1)c1cn(C)nc1C(F)F (centres unmarked) [Compound 735],3.71^[a]
16,CCOC(=O)C(C#N)=C(NC(C)c1sc(C)nc1C)c1cn(C)nc1C(F)F (racemic) [Compound 187],2.43^[a]
17,COC1(NC(=O)C(C#N)=C(NC(C)C(C)C)c2cccnc2Cl)CC1 (centres unmarked) [Compound 1613],2.75^[a]
18,CCOC(=O)C(C#N)=C(NC(C)c1cccc(OC)n1)c1cccnc1Cl (centres unmarked) [Compound 1438],3.5^[a]
19,CCOC(=O)C(C#N)=C(NC(C)COc1ccc(C)cc1)c1cccnc1Cl (centres unmarked) [Compound 1165],3.94^[a]
20,CCOC(=O)C(C#N)=C(Nc1ccccc1Cl)c1cccnc1Cl [Compound 1263],3.35^[a]
21,CCOC(=O)C(C#N)=C(NC(C)c1sc(C)nc1C)c1sc(C)nc1C(F)(F)F (centres unmarked) [Compound 218],3.13^[a]
22,CCOC(=O)C(C#N)=C(NC(C)c1nccs1)c1cn(C)nc1C(F)(F)F (racemic) [Compound 63],2.78^[a]
23,CCOC(=O)C(C#N)=C(NCc1nc2ccccc2s1)c1sccc1Br [Compound 170],3.53^[a]
24,CCOC(=O)/C(C#N)=C(\NC(C)c1nc(C)c(C)s1)c1sccc1Cl (centres unmarked) [Compound 150],3.76^[a]

# Same assay, conditions: pH 7.5
row,Structure (SMILES),Log P
1,CCOC(=O)C(C#N)=C(Nc1ccccc1SC)c1cccnc1OC [Compound 522],3.32^[c]; 3.32^[b]
2,CNC(=O)C(C#N)=C(NC(C)c1nccs1)c1ccc(Cl)nc1Cl (centres unmarked) [Compound 1460],2.29
3,CNC(=O)C(C#N)=C(NC(C)c1nccs1)c1cccnc1Cl (racemic) [Compound 269],1.69
4,CCOC(=O)C(C#N)=C(NC(C)c1nccs1)c1cccnc1Br (racemic) [Compound 1547],2.44
